The text below walks through data of US12258360B2, “Compositions and methods for treatment of anticancer-drug resistant cancers” (THE GEORGE WASHINGTON UNIVERSITY, priority 2020, dated 2025).

Assay [1] concerns the target T1, And-1 (Homo sapiens, UniProt O75717).
T1 sequence (O75717 1-1129): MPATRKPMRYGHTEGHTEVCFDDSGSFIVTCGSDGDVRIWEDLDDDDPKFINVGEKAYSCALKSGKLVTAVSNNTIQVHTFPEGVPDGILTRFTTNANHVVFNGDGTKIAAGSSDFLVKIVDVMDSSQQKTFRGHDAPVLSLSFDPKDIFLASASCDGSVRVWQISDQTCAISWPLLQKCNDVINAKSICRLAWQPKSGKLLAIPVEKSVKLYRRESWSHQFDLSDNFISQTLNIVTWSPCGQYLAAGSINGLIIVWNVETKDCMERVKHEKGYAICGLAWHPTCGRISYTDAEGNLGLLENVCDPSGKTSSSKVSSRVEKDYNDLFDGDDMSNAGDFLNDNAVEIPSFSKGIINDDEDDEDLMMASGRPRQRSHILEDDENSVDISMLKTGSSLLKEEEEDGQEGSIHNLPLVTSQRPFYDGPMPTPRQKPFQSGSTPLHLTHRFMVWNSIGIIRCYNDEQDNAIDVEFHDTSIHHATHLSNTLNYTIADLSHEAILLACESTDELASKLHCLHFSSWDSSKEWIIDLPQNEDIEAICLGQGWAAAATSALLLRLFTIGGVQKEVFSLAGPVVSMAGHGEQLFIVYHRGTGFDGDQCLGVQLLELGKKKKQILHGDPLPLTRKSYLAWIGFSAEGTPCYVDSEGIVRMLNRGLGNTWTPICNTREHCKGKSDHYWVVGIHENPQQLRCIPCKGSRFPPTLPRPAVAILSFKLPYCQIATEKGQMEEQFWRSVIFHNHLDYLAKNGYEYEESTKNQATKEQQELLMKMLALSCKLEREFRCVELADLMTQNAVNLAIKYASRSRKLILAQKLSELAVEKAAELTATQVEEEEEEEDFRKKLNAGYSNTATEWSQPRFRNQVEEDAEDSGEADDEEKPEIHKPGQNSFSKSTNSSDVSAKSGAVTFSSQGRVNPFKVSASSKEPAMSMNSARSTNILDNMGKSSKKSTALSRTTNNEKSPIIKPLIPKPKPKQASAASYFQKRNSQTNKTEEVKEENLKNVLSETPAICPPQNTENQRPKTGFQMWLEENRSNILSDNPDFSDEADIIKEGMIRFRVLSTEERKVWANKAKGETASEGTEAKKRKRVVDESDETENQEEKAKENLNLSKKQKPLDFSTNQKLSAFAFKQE
The assay is described as follows: inhibition of And-1 in IGROV1 CR cells. The note with it: inhibition of And-1, IGROV1 CR cells. Type of assay: cell-based. On the set-up: endogenous in cells; host or cells: IGROV1 CR.

The target of assay [2] is T1, And-1. The assay is described as follows: Western blot detection of And-1 protein expression in A549 cells. Format: cell-based. On the set-up: endogenous in cells; host or cells: A549. The note with it: A549 cell line, 5 μM, 24 hours. As to the method: Select the A549 cells in good growth condition and inoculate them in a 60 mm petri dish at a density of 500,000. After culturing in a constant temperature incubator at 37° C. and 5% CO2 for 24 hours, add different compounds of the same concentration (5 μM) and continue culturing for 24 hours before collecting Cells were subjected to Western blotting experiments to compare with untreated cells to detect the inhibitory effect of each compound on the expression of And-1 protein.
For orientation: In western blotting, separated proteins are transferred to a membrane and probed.

A further assay concerns SREBP target gene SCD-1. The assay is described as follows: RT-PCR detection of SCD-1 gene expression in AN3CA cells. Type of assay: cell-based, human. The note with it: 10 μM; for Relative mRNA expression of SCD-1: AN3CA cells, 48 h, DMSO = 1. As to the method:
• 1. Experimental reagent • 2. The experimental steps are as follows: • 2.1 AN3CA cell recovery and culture (10% serum 1% double antibody in MEM medium); • 2.2 passages (passage at a ratio of 1:2); • 2.3 Place 6 well plates when the cell status is good, 5×10^5Well, culture overnight; • 2.4 adding medicine: diluting the final concentration of the drug with a culture medium to 10 μM, 2 mL/well; • 2.5 adding medicine for 48 h, and then extracting RNA; • 2.5.1 removing the culture medium, adding 0.5 mL/hole Trizol to lyse the cells, repeatedly blowing and beating the cells by a pipette after 5 min, completely lysing the cells, transferring the cells into a 1.5 mL EP tube without RNase, and standing the tube for 5 min; • 2.5.2 adding 200 µl chloroform, shaking rapidly, mixing, standing for 10 min 12000 rpm/15 min; • 2.5.3 carefully taking out the supernatant, transferring the supernatant into an EP tube, adding isopropanol with the same volume, reversing, uniformly mixing, standing for 10 min, and centrifuging at 12000 rpm/10 min; • 2.5.4 removing the supernatant, adding 1 mL of 75% ethanol for washing, centrifuging at 8000 rpm/5 min once, carefully removing the supernatant, standing at room temperature for 10 min to volatilize the ethanol, and dissolving the precipitate with 40 μL of DEPC treated water when the precipitate becomes transparent; • 2.5.5 RNA concentration was measured and DEPC-treated water was diluted to 100 ng/μL • 2.6 reverse transcription: Kit Takara (PrimeScript RT reagent Kit (Perfect Real Time)

Assay [3] addresses T1, And-1. The assay is described as follows: inhibition of And-1 in OV90 CR cells. On the set-up: endogenous in cells. To be noted: inhibition of And-1, OV90 CR cells. Type of assay: cell-based.
The subject of assay [4] is AN3CA cells. The assay is described as follows: cell clonogenic assay in AN3CA cells. The note with it: 5 μM. Type of assay: cell-based, human. How it is done: • 1. The experimental steps are as follows: • 1.1 AN3CA cell recovery and culture (MEM medium, 10% serum, 1% double antibody); • 1.2 Passages (1:2 ratio passage); • 1.3 When the cell state is good, laying 6-hole plates, 500/hole, and culturing overnight; • 1.4 Adding medicine: […], 2 mL/well; • 1.5 Adding medicine in a liquid changing mode every two days; • 1.6 Frequent observation. The culture was terminated when macroscopic colonies appeared in the culture dish. The supernatant was discarded, carefully rinsed 2 times with PBS and air dried. Cells were fixed with 5 mL of 4% paraformaldehyde for 30 minutes or with methanol for 10 minutes. And (3) removing the stationary liquid after air drying, adding a proper amount of GIMSA, dyeing for 10-30 minutes by using the dyeing liquid, then slowly washing away the dyeing liquid by using running water, and air drying. • 1.7 Plates were inverted and overlaid with a piece of transparent film with grid and clones were counted either directly with the naked eye or with a microscope (low power) for clones larger than 10 cells. And finally calculating the clone formation rate. • 1.8 Percent colony formation rate (number of clones/number of inoculated cells)×100%

The subject of assay [5] is AN3CA cells. The assay is described as follows: cell proliferation assay (MTS) in AN3CA cells. Format: cell-based, human. To be noted: 10 μM, 48 h. How it is done:
• 1. The experimental steps are as follows: • 1.1 AN3CA cell recovery and culture (MEM medium, 10% serum, 1% double antibody); • 1.2 Passages (passage at a ratio of 1:2); • 1.3 Place 96-well plate when the cell status is good, 1×10^4 Well, culture overnight; • culture medium with 10% defatted serum • 1.4 Adding medicine: diluting the final concentration of the drug with a culture medium to 10 μM, and treating for 48 h at 100 μL/well; • culture medium with 10% defatted serum • 1.5 Addition of 2 μL MTS/well, care taken to prevent bubble formation, 490 nm data after 1-4 h

Structures are written as SMILES. “And” between values parts separate entries of the source, which are not always exact repeats. Equal entries are not always repeated.

The IC50 is the concentration that inhibits the measured activity by half. Higher therefore signals a need for much substance. For the molecule `OB1OCc2cc(/C=C/c3ccc(Cl)c(Cl)c3)ccc21` [III, (E)-5-(3,4-dichlorostyryl)benzo[c][1,2]oxaborol-1(3H)-ol], the IC50 was 7.8 µM and 7.83 µM against And-1 [1]; 13.3 µM on And-1 [3]. Moreover, the “expression of And-1 protein (Western blot)” value on And-1 [2] is “significantly inhibit”. In addition, the “Relative mRNA expression of SCD-1” value in the assay with SREBP target gene SCD-1 came out at 0.64. For the same molecule, the “inhibitory effect on Srebp” value in the assay on SREBP target gene SCD-1 (human endometrial cancer AN3CA cells) is “high inhibitory effect”.

Take `OB1OCc2cc(/C=C/c3cc(Cl)cc(Cl)c3)ccc21` [XIV, (E)-5-(3,5-dichlorostyryl)benzo[c][1,2]oxaborol-1(3H)-ol]: the half-maximal inhibitory concentration (IC50) is 25.7 µM on And-1 [1] and 29.9 µM against And-1 [3]. Also, in the assay on SREBP target gene SCD-1, the “Relative mRNA expression of SCD-1” value came out at 0.46. Further, the “inhibition of clonogenic rate” value in the assay with AN3CA cells [4] was “comparable to that of 10 μM BF 175”. In addition, the “inhibition of AN3CA cell proliferation (in words)” value in the assay with AN3CA cells [5] is “different degrees of inhibition”.
